# Test results: US20100240767A1, “Melanogenesis inhibitiuon by 3,5-dimethoxy-4'-hydroxystilbenes and cosmeceutical compositions thereof” (priority 2009, published 2010)
# Key:
# [1] = tested on: Swiss 3T3 mouse fibroblast cells; test: UV protection in Swiss 3T3 mouse fibroblast cells (SRB viability); type: cell-based; conditions: UV A (0.5 J/cm2) and UV B (0.05 J/cm2), 72 hours incubation, SRB staining
# Description: 3,5-dimethoxy-4′-hydroxystilbene was studied for UV protection in Swiss 3T3 mouse fibroblast cells. Swiss 3T3 fibroblast cell monolayers were exposed to UV A (0.5 J/cm2) and UV B (0.05 J/cm2) in the presence and absence of sample treatment at varying concentrations. After UV exposure, the cells were incubated in CO2 incubator for 72 hours and the cell viability was determined by SRB (Sulphorhodomine B) dye staining. The UV protection is determined as the enhanced percentage of viable sample treated cells as compared to the untreated cells after UV exposure.
# [2] = tested on: B16F1 mouse melanoma cell line; test: melanogenesis inhibition in MSH-induced B16F1 mouse melanoma cell line; type: cell-based
# Description: 3,5-dimethoxy-4′-hydroxystilbene was studied for melanogenesis inhibition in B16F1 mouse melanoma cell line. B16F1 cells were induced with 0.5 nM MSH (Melanocyte stimulating hormone) and then treated with varying concentrations of the sample. Sample treatment was given thrice after every 72 hrs. On the 9th day of treatment, the melanin from the cells was extracted with 1N NaOH and the absorbance was read at 405 nm in a Fluostar Optima micro plate reader.
# mushroom tyrosinase = mushroom tyrosinase inhibitory activity; type: biochemical; conditions: 400 U/ml mushroom tyrosinase, 3.53 mM L-tyrosine substrate, absorbance 492 nm at 10th minute
# Description: The mushroom tyrosinase inhibitory activity of 3,5-dimethoxy-4′-hydroxystilbene was studied in a micro plate by incubating varying concentrations of the sample with 400 U/ml of mushroom tyrosinase and then by the addition of 3.53 mM of L-tyrosine substrate. The absorbance at the 10th minute of the reaction was read in a Fluostar Optima micro plate reader at 492 nm.
smiles,measurement,setting,value
"COc1cc(/C=C/c2ccc(O)cc2)cc(OC)c1 [3,5-dimethoxy-4′-hydroxystilbene]",UV protection (enhanced percentage of viable treated cells as compared to the untreated cells after UV exposure),[1],32%
same,IC50,"[2]; Mus musculus, B16-F1, B16F1 cells induced with 0.5 nM MSH, treated thrice every 72 hrs, melanin read at 405 nm on 9th day",0.5 µg/mL
same,melanogenesis inhibition potential relative to Glabridin,"[2]; times higher potential than Glabridin, B16F1 cells",about 6 times
same,inhibition of mushroom tyrosinase IC50,mushroom tyrosinase,7 µg/mL
